From PubChem BioAssay (NCI)
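Five concentrations, 48 hours, 96-well plates. GI50 = concentration required for 50% inhibition of growth. TGI is the concentration that stops growth completely.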

Experiments:
Assay in all cases: NCI tumour cell line growth inhibition, 48 h
[1] = system: OVCAR-4 ovarian
[2] = system: MOLT-4 leukemia
[3] = system: MALME-3M melanoma
[4] = system: HL-60(TB) leukemia
[5] = system: CAKI-1 renal
[6] = system: LOX IMVI melanoma
[7] = system: OVCAR-8 ovarian
[8] = system: U251 CNS
[9] = system: SW-620 colon
[10] = system: SK-MEL-5 melanoma
[11] = system: MDA-MB-435
[12] = system: HCT-15 colon
[13] = system: HS 578T breast
[14] = system: HOP-62 NSCLC
[15] = system: A549 NSCLC
[16] = system: HT29 colon
[17] = system: PC-3 prostate
[18] = system: RPMI-8226 leukemia
[19] = system: UACC-257 melanoma
[20] = system: HCT-116 colon
[21] = system: NCI-H23 lung
[22] = system: ACHN renal
[23] = system: RXF 393 renal
[24] = system: SK-MEL-2 melanoma
[25] = system: HOP-92 NSCLC
[26] = system: IGROV1 ovarian
[27] = system: COLO 205 colon
[28] = system: SK-OV-3 ovarian
[29] = system: MDA-MB-468 breast
[30] = system: M14 melanoma
[31] = system: MCF7 breast
[32] = system: CCRF-CEM leukemia
[33] = system: SR leukemia
[34] = system: 786-0 renal
[35] = system: UACC-62 melanoma
[36] = system: SF-295 CNS
[37] = system: OVCAR-3 ovarian
[38] = system: EKVX NSCLC
[39] = system: NCI-H460 lung
[40] = system: SNB-19 CNS
[41] = system: NCI-H522 lung
[42] = system: SNB-75 CNS
[43] = system: SF-539 CNS
[44] = system: T-47D breast
[45] = system: K-562 leukemia
[46] = system: OVCAR-5 ovarian
[47] = system: BT-549 breast
[48] = system: KM12 colon
[49] = system: A498 renal
[50] = system: SN12C renal
[51] = system: UO-31 renal
[52] = system: MDA-MB-231 breast
[53] = system: HCC-2998 colon
[54] = system: NCI-H226 lung
[55] = system: DU-145 prostate
[56] = system: TK-10 renal
[57] = system: SF-268 CNS
[58] = system: SK-MEL-28 melanoma

## COc1cccc(-c2c(C#N)c(-c3ccc(Cl)cc3)nc3n[nH]c(-c4ccc(Cl)cc4)c23)c1
[1]
  GI50: 4.96 µM
  TGI: 86.4 µM
[2]
  GI50: 3.45 µM
  TGI: 49.2 µM
[3]
  GI50: 11.5 µM
  TGI: 31.7 µM
[4]
  GI50: 4.77 µM
  TGI: 43.5 µM
[5]
  GI50: 7.91 µM
  TGI: 32.9 µM
[6]
  GI50: 10.6 µM
  TGI: 28.9 µM
[7]
  GI50: 20.9 µM
  TGI: > 100 µM
[8]
  GI50: 13.6 µM
  TGI: > 100 µM
[9]
  GI50: 21.2 µM
  TGI: > 100 µM
[10]
  GI50: 12.4 µM
  TGI: 26.3 µM
[11]
  GI50: 13.4 µM
  TGI: 37.2 µM
[12]
  GI50: 4.16 µM
  TGI: 27.8 µM
[13]
  GI50: 11.1 µM
  TGI: 89.6 µM
[14]
  GI50: 16.4 µM
  TGI: 80.6 µM
[15]
  GI50: 15.1 µM
  TGI: > 100 µM
[16]
  GI50: 9.76 µM
  TGI: 29.8 µM
[17]
  GI50: 3.19 µM
  TGI: > 100 µM
[18]
  GI50: 4.44 µM
  TGI: > 100 µM
[19]
  GI50: 22.7 µM
  TGI: 93.3 µM
[20]
  GI50: 4.66 µM
  TGI: 26.2 µM
[21]
  GI50: 13.6 µM
  TGI: > 100 µM
[22]
  GI50: 13.6 µM
  TGI: > 100 µM
[23]
  GI50: 11.5 µM
  TGI: 79.3 µM
[24]
  GI50: 13.9 µM
  TGI: 30.1 µM
[25]
  GI50: 2.35 µM
  TGI: 9.24 µM
[26]
  GI50: 16 µM
  TGI: 68 µM
[27]
  GI50: 11.3 µM
  TGI: 25.2 µM
[28]
  GI50: 18.1 µM
  TGI: 98.7 µM
[29]
  GI50: 19.1 µM
  TGI: > 100 µM
[30]
  GI50: 9.82 µM
  TGI: 34.1 µM
[31]
  GI50: 6 µM
  TGI: > 100 µM
[32]
  GI50: 6.56 µM
  TGI: > 100 µM
[33]
  GI50: 7.09 µM
  TGI: 50.3 µM
[34]
  GI50: 11.2 µM
  TGI: > 100 µM
[35]
  GI50: 12.6 µM
  TGI: 29.1 µM
[36]
  GI50: 12.1 µM
  TGI: 33 µM
[37]
  GI50: 9.27 µM
  TGI: 80 µM
[38]
  GI50: 11.8 µM
  TGI: > 100 µM
[39]
  GI50: 13.5 µM
  TGI: 46.7 µM
[40]
  GI50: 20 µM
  TGI: > 100 µM
[41]
  GI50: 16.1 µM
  TGI: 92.7 µM
[42]
  GI50: 12.7 µM
  TGI: 64.3 µM
[43]
  GI50: 8.28 µM
  TGI: 25.9 µM
[44]
  GI50: 3.42 µM
  TGI: 77.8 µM
[45]
  GI50: 4.01 µM
  TGI: 78.6 µM
[46]
  GI50: 11.2 µM
  TGI: 50.8 µM
[47]
  GI50: 6.07 µM
  TGI: 27.4 µM
[48]
  GI50: 8.81 µM
  TGI: > 100 µM
[49]
  GI50: 33.3 µM
  TGI: > 100 µM
[50]
  GI50: 12 µM
  TGI: > 100 µM
[51]
  GI50: 2.38 µM
  TGI: 72.7 µM
[52]
  GI50: 12.8 µM
  TGI: 35.1 µM
[53]
  GI50: 6.14 µM
  TGI: 31 µM
[54]
  GI50: 11.9 µM
  TGI: 49.1 µM
[55]
  GI50: 21 µM
  TGI: > 100 µM
[56]
  GI50: 38 µM
  TGI: > 100 µM
[57]
  GI50: 14.8 µM
  TGI: > 100 µM
[58]
  GI50: 17.8 µM
  TGI: 74.8 µM
